# PubChem BioAssay (NCI)
#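 Cells were grown in 96-well plates and exposed to each compound for 48 hours at five concentrations; endpoints were interpolated linearly between bracketing concentrations, or set to the highest concentration if not reached. GI50 = concentration required for 50% inhibition of growth. TGI: concentration producing complete growth inhibition.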
# How the values were obtained:
# Test in all cases: inhibition of tumour cell growth, NCI panel, 48 h
# [1] = test system: RXF 393 renal
# [2] = test system: MCF7 breast
# [3] = test system: SN12C renal
# [4] = test system: UACC-62 melanoma
# [5] = test system: K-562 leukemia
# [6] = test system: SK-OV-3 ovarian
# [7] = test system: OVCAR-3 ovarian
# [8] = test system: NCI-H522 lung
# [9] = test system: U251 CNS
# [10] = test system: HCT-116 colon
Structure (SMILES),GI50 [1] [µM],TGI [1] [µM],GI50 [2] [µM],TGI [2] [µM],GI50 [3] [µM],TGI [3] [µM],GI50 [4] [µM],TGI [4] [µM],GI50 [5] [µM],TGI [5] [µM],GI50 [6] [µM],TGI [6] [µM],GI50 [7] [µM],TGI [7] [µM],GI50 [8] [µM],TGI [8] [µM],GI50 [9] [µM],TGI [9] [µM],GI50 [10] [µM],TGI [10] [µM]
O=C(Nc1ccccc1)Nc1cccc(Oc2nnc(Cl)c3ccccc23)c1,2.69,6.24,1.32,6.32,6.72,> 25,6.84,> 25,6.21,> 25,1.46,5.51,2.64,5.97,2.8,9.68,2.14,5.2,3.06,9.77
O=C(CC1C=CCS1(=O)=O)NCc1ccccc1 (stereo not given),–,> 100,–,> 100,–,> 100,–,> 100,–,> 100,–,> 100,–,> 100,–,> 100,–,> 100,–,> 100
COc1ccccc1-c1cc(=O)c2ccc(OC)c(OC)c2o1,–,> 100,–,> 100,–,> 100,–,> 100,–,> 100,–,> 100,–,> 100,–,> 100,–,> 100,–,> 100
COc1ccc(OC)c2c(=S)c3ccccc3[nH]c12,–,> 100,–,> 100,–,> 100,–,> 100,–,> 92.6,–,> 100,–,> 100,–,> 100,–,> 100,–,> 100
COc1ccc(N(/C=C/C(=O)C(F)(F)F)CC(=O)c2ccc(Cl)c(Cl)c2)cc1,36.3,> 100,5.11,28.9,14.5,33.5,8.75,22.8,4.07,> 100,20.1,39.7,15.6,29.3,19.4,43.7,12.2,25.3,9.94,21.5
Cc1nc(C(N)=S)sc1C(=O)C/C(=N/N)C(=O)Nc1ccc(Cl)cc1,–,> 100,–,> 100,–,> 100,–,> 100,–,> 100,–,> 100,–,> 100,–,> 100,–,> 100,–,> 100
OCC(O)C(O)C(O)/C=N/Nc1nc2ccccc2nc1-c1ccccc1 (stereo not given),> 100,> 100,97.9,> 100,> 100,> 100,67.3,> 100,68.9,> 100,> 100,> 100,46,> 100,72.7,> 100,77.9,> 100,> 100,> 100
N#C/C(=C\c1ccc(Br)cc1)n1nnc2ccccc21,0.427,1.94,0.303,6.2,0.525,3.48,0.358,1.59,0.235,> 19.7,5.11,22.1,0.244,0.604,0.191,1.25,1.1,2.67,0.518,1.93
C/C(=N\N=C(N)N)C(CN(C)C)C(c1ccccc1)c1c(O)c2ccccc2oc1=O (stereo not given),–,> 100,–,> 100,–,> 100,–,> 100,–,> 100,–,> 100,–,> 100,–,> 100,–,> 100,–,> 100
C[C@H](N)C(=O)N1C[C@H](CCCB(O)O)[C@](N)(C(=O)O)C1,> 100,> 100,> 100,> 100,> 100,> 100,> 100,> 100,> 100,> 100,> 100,> 100,> 100,> 100,> 100,> 100,> 100,> 100,> 100,> 100
O=C1CS/C(=N\S(=O)(=O)c2ccc(N3N=C4c5ccccc5CC4C3c3ccc(Cl)cc3)cc2)N1c1ccccc1 (stereo not given),29.4,81.3,18.7,47.9,37.3,> 100,30.1,77.3,18.7,40.3,31.4,95.2,48.5,> 100,36.7,> 100,27.8,64.8,38.7,> 100
CS(=O)(=O)OCCN(CCOS(C)(=O)=O)c1ccc(C=O)cc1,–,1.72,–,> 75.9,–,41.3,–,14.5,–,> 100,–,7.18,–,28.5,–,0.553,–,45.7,–,> 100
COc1ccc2c(c1)C1(C(=O)N2)C(C#N)=C(c2ccccc2)Nc2c1c(-c1ccccc1)nn2-c1ccccc1 (stereo not given),1.93,5.3,2.09,6.79,1.94,3.71,5.36,18.2,4.6,22.9,2.08,5.14,1.95,3.39,3.75,18.3,2.8,7.12,1.66,3.02
CN1CCN(c2ccc(C(=O)Nc3cc(-c4cccc(NS(=O)(=O)c5ccccc5)c4)[nH]n3)cc2)CC1,2.55,12.5,3.25,16.9,7.82,24,11,23.4,2.89,19.4,11.7,30.9,12.7,25.8,3.29,13.2,2.87,18.7,4.68,17.4
Cc1c(N=Cc2ccc(N(CCC#N)CCC#N)cc2)c(=O)n(-c2ccccc2)n1C,–,92.1,–,> 100,–,> 100,–,> 100,–,> 100,–,> 100,–,> 100,–,> 100,–,> 100,–,> 100
CC(C)c1ccc(NC(=S)NC(=O)c2ccccc2)cc1,–,44.9,–,48.8,–,> 100,–,30.7,–,> 100,–,> 100,–,38.3,–,37.5,–,80.1,–,39.3
N#Cc1c(N)nc(N2CCOCC2)c(C#N)c1-c1ccccc1Cl,17.5,72.3,17.7,88.7,35.8,> 100,18.9,> 100,60.9,> 100,41.2,> 100,17.3,87.1,0.0236,2.81,50,> 100,74.7,> 100
CCSc1nnc(-c2ccc3ccccc3c2O)n1-c1ccc(Cl)cc1,42.3,> 100,6.66,> 100,> 100,> 100,4.6,> 100,4.04,> 100,69.5,> 100,29.4,> 100,5.15,> 100,4.05,> 100,4,> 100
NC(=O)c1ccc2nc3c(n2c1)C(=O)C(=O)c1ccccc1-3,1.64,3.02,0.23,0.702,0.965,2.33,0.545,1.77,0.677,3.73,1.78,3.18,0.24,0.63,0.679,2.18,0.296,0.928,0.327,1.21
